Target: T1, Scytalone dehydratase (Magnaporthe oryzae (strain 70-15 / FGSC 8958) (Rice blast fungus)(Pyricularia oryzae), UniProt P56221)
T1 sequence (P56221 whole entry): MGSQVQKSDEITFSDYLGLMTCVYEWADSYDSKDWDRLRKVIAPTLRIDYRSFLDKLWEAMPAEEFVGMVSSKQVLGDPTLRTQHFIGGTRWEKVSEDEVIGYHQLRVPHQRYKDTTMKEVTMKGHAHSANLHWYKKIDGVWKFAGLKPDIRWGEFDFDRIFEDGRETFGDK
Assay: Compound was evaluated for its inhibition constant against scytalone dehydratase (SD)
Parameters: species or system Pyricularia grisea

## O=C(/C=C/c1ccccc1)NC(=S)Nc1ccc(S(=O)(=O)Nc2cc(F)ccc2F)cc1
  Ki: 6.4 nM

— ChEMBL document CHEMBL1133413, “Selection of a potent inhibitor of trihydroxynaphthalene reductase by sorting disease control data” (Bioorg Med Chem Lett, 2000)
